Results published in US20160129080A1, “TREATMENT OF POLYPOIDAL CHROIDAL VASCULOPATHY” (priority 2013, published 2016).

Assays:
[1] = Indocyanine green angiography-assessed complete regression of polyps, randomized three-group patient study; type: in vivo, human; conditions: month 6, 61 patients randomized to three groups, ranibizumab 0.5 mg intravitreal
Procedure: (§1) Sixty-one patients were randomized to three treatment groups: verteporfin photodynamic therapy, ranibizumab 0.5 mg, or the combination. Patients were administered with verteporfin photodynamic therapy/placebo and initiated with three consecutive monthly intravitreal ranibizumab/sham injections starting from day 1 (first photodynamic therapy session). Indocyanine green angiography was performed at baseline and at months 3, 4, 5, and 6. Fluorescein angiography was performed to assess the presence of leakage and to obtain fundus photographs at the same times. Changes in central retinal thickness were determined by optical coherence tomography. Treatment with ranibizumab/sham injections was repeated at months 3-5 on an as-needed basis.
(§2) The primary endpoint was the proportion of patients with indocyanine green angiography-assessed complete regression of polyps at month 6. Secondary endpoints included mean change in best corrected visual acuity at month 6 and safety.

[2] = Best corrected visual acuity change, randomized three-group patient study; type: in vivo, human; conditions: month 6; mean±SD; ranibizumab 0.5 mg intravitreal
Procedure: as §1, §2

Row | Molecule | proportion of patients with complete polyp regression [1] [%] | Mean change±standard deviation in best corrected visual acuity [2] [letters]
1 | verteporfin | 71.4 | 7.5±10.6
2 | ranibizumab (antibody, chains of the INN, looked up, V domains shown, Fab, anti-VEGF antibody antagonist approved for human use) VH: EVQLVESGGGLVQPGGSLRLSCAASGYDFTHYGMNWVRQAPGKGLEWVGWINTYTGEPTYAADFKRRFTFSLDTSKSTAYLQMNSLRAEDTAVYYCAKYPYYYGTSHWYFDVWGQGTLVTVSS VL: DIQLTQSPSSLSASVGDRVTITCSASQDISNYLNWYQQKPGKAPKVLIYFTSSLHSGVPSRFSGSGSGTDFTLTISSLQPEDFATYYCQQYSTVPWTFGQGTKVEIK | 28.6 | 9.2±12.4
